# Data taken from patent publication US20260144788A1, “COMPOUND FOR SHP2 PROTEIN DEGRADATION AND MEDICAL USES THEREOF” (UBIX THERAPEUTICS, INC., priority 2022, published 2026).
# Target: T1, SHP2 protein (Homo sapiens, UniProt Q06124)
# T1 sequence (Q06124 1-593): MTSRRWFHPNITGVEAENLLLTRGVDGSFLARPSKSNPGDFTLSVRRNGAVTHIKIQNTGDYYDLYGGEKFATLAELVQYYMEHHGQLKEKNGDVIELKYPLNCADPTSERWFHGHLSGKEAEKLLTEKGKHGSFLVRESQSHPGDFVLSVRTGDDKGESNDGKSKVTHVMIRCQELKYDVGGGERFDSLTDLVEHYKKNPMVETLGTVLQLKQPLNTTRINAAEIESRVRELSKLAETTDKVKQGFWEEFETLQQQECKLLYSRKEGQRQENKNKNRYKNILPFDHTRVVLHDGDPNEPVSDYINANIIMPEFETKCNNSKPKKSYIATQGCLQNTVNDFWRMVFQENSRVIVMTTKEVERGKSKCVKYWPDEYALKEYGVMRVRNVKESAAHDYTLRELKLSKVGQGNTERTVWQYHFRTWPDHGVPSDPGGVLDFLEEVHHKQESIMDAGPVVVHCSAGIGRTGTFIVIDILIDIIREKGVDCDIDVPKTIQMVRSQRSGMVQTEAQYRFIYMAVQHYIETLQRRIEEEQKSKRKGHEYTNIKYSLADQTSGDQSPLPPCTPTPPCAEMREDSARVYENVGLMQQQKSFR
# Test: Measurement of SHP2 protein degradation in NCI-H358 cells (western blotting)
# Type: cell-based
# Parameters: endogenous in cells; host or cells: NCI-H358
# Conditions: harvested after 24 hours
# How it was run: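 H358 cells in RPMI1640/25 mM HEPES/10% FBS, cultured 24 h, then exposed to compound at final 0.001, 0.01 and 0.1 μM for 24 h against a DMSO control. Lysates were normalised for protein by BCA and probed by western blot for SHP2, with GAPDH as loading control.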
SHP2% degradation (0.01 μM) [%],SHP2% degradation (0.1 μM) [%],SMILES
98.6,98.0,"Cc1ncsc1-c1ccc(CNC(=O)[C@@H]2C[C@@H](O)CN2C(=O)[C@H](C(C)C)n2cc(C3CC3)nn2)c(OC2CCN(C(=O)C3CCN(c4nccc(Sc5cnc(N6CCC(C)(CN)CC6)c(CO)n5)c4Cl)CC3)CC2)c1 [Example 104, (2S,4R)—N-(2-((1-(1-(4-((5-(4-(aminomethyl)-4-methylpiperidin-1-yl)-6-(hydroxymethyl)pyrazin-2-yl)thio)-3-chloropyridin-2-yl)piperidine-4-carbonyl)piperidin-4-yl)oxy)-4-(4-methylthiazol-5-yl)benzyl)-1-((S)-2-(4-cyclopropyl-1H-1,2,3-triazol-1-yl)-3-methylbutanoyl)-4-hydroxypyrrolidine-2-carboxamide]"
98.4,97.9,"Cc1ncsc1-c1ccc(CNC(=O)[C@@H]2C[C@@H](O)CN2C(=O)[C@H](C(C)C)n2cc(C3CC3)nn2)c(OC2CCN(C(=O)C3CCN(c4nccc(Sc5cnc(N6CCC(C)(N)CC6)c(CO)n5)c4Cl)CC3)CC2)c1 [Example 105, (2S,4R)—N-(2-((1-(1-(4-((5-(4-amino-4-methylpiperidin-1-yl)-6-(hydroxymethyl)pyrazin-2-yl)thio)-3-chloropyridin-2-yl)piperidine-4-carbonyl)piperidin-4-yl)oxy)-4-(4-methylthiazol-5-yl)benzyl)-1-((S)-2-(4-cyclopropyl-1H-1,2,3-triazol-1-yl)-3-methylbutanoyl)-4-hydroxypyrrolidine-2-carboxamide]"
99.1,97.3,"Cc1ncsc1-c1ccc(CNC(=O)[C@@H]2C[C@@H](O)CN2C(=O)[C@H](C(C)C)n2cc(C3CC3)nn2)c(OC2CCN(C(=O)C3CCN(c4nccc(Sc5cnc(N6CCC7(CC6)CO[C@@H](C)[C@H]7N)c(CO)n5)c4Cl)CC3)CC2)c1 [Example 106, (2S,4R)—N-(2-((1-(1-(4-((5-((3S,4S)-4-amino-3-methyl-2-oxa-8-azaspiro[4.5]decan-8-yl)-6-(hydroxymethyl)pyrazin-2-yl)thio)-3-chloropyridin-2-yl)piperidine-4-carbonyl)piperidin-4-yl)oxy)-4-(4-methylthiazol-5-yl)benzyl)-1-((S)-2-(4-cyclopropyl-1H-1,2,3-triazol-1-yl)-3-methylbutanoyl)-4-hydroxypyrrolidine-2-carboxamide]"

# Second part, the compound before the results:
SMILES,SHP2% degradation (0.01 μM) [%],SHP2% degradation (0.1 μM) [%]
"Cc1ncsc1-c1ccc(CNC(=O)[C@@H]2C[C@@H](O)CN2C(=O)[C@H](C(C)C)n2cc(C3CC3)nn2)c(OC2CCN(C(=O)C3CCN(c4nccc(Sc5cnc(N6CCC(C)(N)CC6)cn5)c4Cl)CC3)CC2)c1 [Example 102, (2S,4R)—N-(2-((1-(1-(4-((5-(4-amino-4-methylpiperidin-1-yl)pyrazin-2-yl)thio)-3-chloropyridin-2-yl)piperidine-4-carbonyl)piperidin-4-yl)oxy)-4-(4-methylthiazol-5-yl)benzyl)-1-((S)-2-(4-cyclopropyl-1H-1,2,3-triazol-1-yl)-3-methylbutanoyl)-4-hydroxypyrrolidine-2-carboxamide]",99.4,99.8
"Cc1ncsc1-c1ccc(CNC(=O)[C@@H]2C[C@@H](O)CN2C(=O)[C@H](C(C)C)n2cc(C3CC3)nn2)c(OC2CCN(C(=O)C3CCN(c4nccc(Sc5cnc(N6CCC7(CC6)CO[C@@H](C)[C@H]7N)cn5)c4Cl)CC3)CC2)c1 [Example 103, (2S,4R)—N-(2-((1-(1-(4-((5-((3S,4S)-4-amino-3-methyl-2-oxa-8-azaspiro[4.5]decan-8-yl)pyrazin-2-yl)thio)-3-chloropyridin-2-yl)piperidine-4-carbonyl)piperidin-4-yl)oxy)-4-(4-methylthiazol-5-yl)benzyl)-1-((S)-2-(4-cyclopropyl-1H-1,2,3-triazol-1-yl)-3-methylbutanoyl)-4-hydroxypyrrolidine-2-carboxamide]",99.9,99.7
